According to patent publication EP0449699A2, “Pyrazole derivatives as angiotensin II-receptor antagonists, process for their preparation and pharmaceutical compositions containing them” (LABORATOIRES UPSA, priority 1990, dated 1991):

System: récepteurs surrénaliens de l'angiotensine II
Experiment: Displacement of radioligand [125I]-SIAII specifically bound to adrenal angiotensin II receptors (rat adrenal homogenate)
Assay type: binding
Conditions: 60 min, 25°C
Excerpt: L'affinité des produits des exemples pour les récepteurs de l'angiotensine II est évaluée par technique de déplacement d'un radioligand spécifiquement fixé sur les récepteurs surrénaliens de l'angiotensine Il, chez le rat.
Une aliquote d'un homogénat de surrénales de rat incube en présence d'une concentration unique de [^125I]-SIAII (Sar^1, Tyr^4, Ile^8 - angiotensine II), antagoniste des récepteurs de l'angiotensine II, et de deux concentrations d'agents compétiteurs (10^-5 M, 10-^7 M) durant 60 min à 25°C.
La réaction est achevée par ajout de tampon, puis rapide filtration à travers des filtres de papier de verre. La liaison non spécifique est déterminée en présence d'angiotensine Il.
Les résultats sont exprimés, pour les concentrations testées, en pourcentage de déplacement du radioligand spécifiquement fixé sur les récepteurs surrénaliens de l'angiotensine Il.

SMILES | % de déplacement du ligand marqué (competitor 1E-5 M, 10 µM) [%] | % de déplacement du ligand marqué (competitor 1E-7 M, 0.1 µM) [%]
CCCCc1nn(C)c(OCC(=O)OCC)c1Cc1ccc(NC(=O)c2ccccc2C(=O)O)cc1 [Exemple 27, [Méthyl-1 n-butyl-3 ((carboxy-2 benzoyl amino)-4 benzyl)-4 pyrazol-yl-5] oxyacétate d'éthyle] | 92 | 39
CCCc1nn(C)c(OCC(=O)OC)c1Cc1ccc(NC(=O)c2ccccc2C(=O)O)cc1 [Exemple 28, [Méthyl-1 n-propyl-3 ((carboxy-2 benzoyl amino)-4 benzyl)-4 pyrazol-yl-5] oxyacétatede méthyle] | 82 | 34
CCCc1nn(C)c(OCC(=O)OCC)c1Cc1ccc(NC(=O)c2ccccc2C(=O)O)cc1 [Exemple 29, [Méthyl-1 n-propyl-3 ((carboxy-2 benzoyl amino)-4 benzyl)-4 pyrazol-yl-5] oxyacétate d'éthyle] | 80 | 40
CCCc1nn(C)c(OCC(=O)OCC)c1Cc1ccc(NC(=O)c2c(Cl)ccc(Cl)c2C(=O)O)cc1 [Exemple 30, [Méthyl-1 n-propyl-3 ((carboxy-2 dichloro-3,6-benzoyl amino)-4 benzyl)-4 pyrazol-yl-5] oxyacétate d'éthyle] | 96 | 63
CCCc1nn(C)c(OCC(=O)OC)c1Cc1ccc(NC(=O)c2c(Cl)ccc(Cl)c2C(=O)O)cc1 [Exemple 31, [Méthyl-1 n-propyl-3 ((carboxy-2 dlchloro-3,6-benzoyl amino)-4 benzyl)-4 pyrazol-yl-5] oxyacétatede méthyle] | 93 | 60
CCCc1nn(CC(F)(F)F)c(OCC(=O)OC)c1Cc1ccc(NC(=O)c2c(Cl)ccc(Cl)c2C(=O)O)cc1 [Exemple 32, [(trifluoro-2,2,2 éthyl)-1 n-propyl-3 ((carboxy-2 dichloro-3,6-benzoyl amino)-4 benzyl)-4 pyrazol-yl-5] oxyacétatede méthyle] | 98 | 52
CCCc1nn(CC(F)(F)F)c(OCC(=O)OC)c1Cc1ccc(NC(=O)c2ccccc2C(=O)O)cc1 [Exemple 33, [(trifluoro-2,2,2 éthyl)-1 n-propyl-3 ((carboxy-2 benzoyl amino)-4 benzyl)-4 pyrazol-yl-5] oxyacétatede méthyle] | 94 | 26
CCCc1nn(C)c(OCC(=O)O)c1Cc1ccc(NC(=O)c2ccccc2S(=O)(=O)O)cc1 [Exemple 35, Acide [Méthyl-1 n-propyl-3 [(sulfo-2 benzoyl amino)-4 benzyl]-4 pyrazol-yl-5] oxy acétique] | 85 | 48
CCCCc1nn(C)c(O)c1Cc1ccc(-c2ccccc2C(=O)O)cc1 [Exemple 36, Acide [Méthyl-1 n-butyl-3 hydroxy-5 pyrazol-yl-4] méthyl-4' biphényl-2 carboxylique] | 62 | 10
CCCCc1nn(C)c(OCC(=O)O)c1Cc1ccc(-c2ccccc2C(=O)O)cc1 [Exemple 37, Acide [Méthyl-1 n-butyl-3 (carboxy-2' biphényl-yl-4)méthyl-4 pyrazol-yl-5] oxyacétique] | 58 | 9
CCCCc1nn(C)c(O)c1Cc1ccc(NC(=O)c2c(Cl)ccc(Cl)c2C(=O)O)cc1 [Exemple 40, Acide [(Méthyl-1 n-butyl-3 hydroxy-5 pyrazolyl-4]méthylphényl-yl-4] amino carbonyl-2 dichloro-3,6 benzoïque] | 83 | 0
CCCc1nn(CC(=O)OCC)c(O)c1Cc1ccc(NC(=O)c2c(Cl)ccc(Cl)c2C(=O)O)cc1 [Exemple 41, Acide [[éthoxy carbonyl méthyl-1 n-propyl-3 hydroxy-5 pyrazol-yl-4]méthylphényl-yl-4] amino carbonyl-2 dichloro-3,6 benzoïque] | 85 | 2
CCCc1nn(CC(=O)OCC)c(OCC(=O)OCC)c1Cc1ccc(NC(=O)c2c(Cl)ccc(Cl)c2C(=O)O)cc1 [Exemple 44, Acide [[(Ethoxy carbonyl méthyl)-1 n-propyl-3 (Ethoxy carbonyl méthyloxy)-5 pyrazol-yl-4]méthylphényl-yl-4] amino carbonyl-2 dlchloro-3,6-benzoïque] | 96 | 9
CCCc1nn(C)c(OCC(=O)OCC)c1Cc1ccc(NC(=O)c2ccccc2S(=O)(=O)O)cc1 [Exemple 45, Acide [[Méthyl-1 n-propyl-3 (Ethoxy carbonyl méthyloxy)-5 pyrazol-yl-4]méthylphényl-yl-4] amino carbonyl-2 benzène sulfonlque.] | 92 | 60
CCCCc1nn(C)c(OCC(=O)N2CCOCC2)c1Cc1ccc(NC(=O)c2ccccc2S(=O)(=O)O)cc1 [Exemple 48, N-[[Méthyl-1 n-butyl-3 [(sulfo-2 benzoyl amino)-4 benzyl]-4 pyrazol-yl-5]oxyacétyl] morpholine] | 80 | 58
CCCCc1nn(C)c(OCCO)c1Cc1ccc(NC(=O)c2ccccc2S(=O)(=O)O)cc1 [Exemple 51, Acide [[Méthyl-1 n-butyl-3 (hydroxy-2 éthoxy)-5 pyrazol-yl-4]méthylphényl-yl-4] amino carbonyl-2 benzène sulfonique] | 83 | 60
CCCc1nn(C)c(OC(=O)N(C)C)c1Cc1ccc(NC(=O)c2ccccc2S(=O)(=O)O)cc1 [Exemple 54, Acide [[Méthyl-1 n-propyl-3 (N,N-diméthyl carbamoyl)oxy-5 pyrazol-yl-4]méthylphényl-yl-4] aminocarbonyl-2 benzène sulfonique] | 77 | 62
CCCc1nn(C)c(OC(=O)N(CC)CC)c1Cc1ccc(NC(=O)c2ccccc2S(=O)(=O)O)cc1 [Exemple 57, Acide [[Méthyl-1 n-Propyl-3 (N,N-diéthyl carbamoyl)oxy-5 pyrazol-yl-4]méthylphényl-yl-4] amino carbonyl-2 benzène sulfonique] | 80 | 60
CCCc1nn(CC(F)(F)F)c(OC(=O)N(C)C)c1Cc1ccc(NC(=O)c2ccccc2S(=O)(=O)O)cc1 [Exemple 60, Acide [[(trifluoro-2,2,2 éthyl)-1 n-Propyl-3 (N,N-diméthyl carbamoyl)oxy-5 pyrazol-yl-4]méthylphényl-yl-4] amino carbonyl-2 benzène sulfonique] | 84 | 49
CCCc1nn(CC(F)(F)F)c(OCCO)c1Cc1ccc(NC(=O)c2ccccc2S(=O)(=O)O)cc1 [Exemple 63, Acide [[(trffiuoro-2,2,2 éthyl)-1 n-Propyl-3 (hydroxy-2 éthoxy)-5 pyrazol-yl-4]méthyl-4 phényl-yl-4] amino carbonyl-2 benzène sulfonique] | 91 | 64
